Tested on: normal human umbilical vein endothelial cell (HUVEC)
Test: NO production: nitrite (NO2) in HUVEC culture supernatant by HPLC
Assay type: cell-based
Conditions: 24-hour culture, vs control (PBS), FIG. 1
Experimental: A normal human umbilical vein endothelial cell (HUVEC) line available from Clonetics (SanDiego, Calif., USA) was used with EGM-2 Bullet Kit medium containing 2% FBS (Takara Bio). The cells were cultured in at 37° C., in 5% CO2 incubator, and used for experiment after 4 to 6 passages. Citrulline and reduced glutathione were obtained from Kyowa Hakko Bio.
A cell suspension (0.45 mL) with the adjusted initial cell combination of 5×10^5 cells/mL was inoculated in a 24-well plate (IWAKI). After 40-hour culture, the media were replaced with those containing citrulline (final concentration 0.3 mM; citrulline group), reduced glutathione (final concentration 1 mM: high-dose glutathione group), and a citrulline and reduced glutathione mixture (citrulline final concentration 0.3 mM; glutathione final concentration 0.3 mM; citrulline+low -dose glutathione group). Media with the sole addition of solvent (PBS) were used as a control group. After 24-hour culture, the cell culture (100 μL) was centrifuged at 12,000 rpm for 10 minutes, and the concentration of nitrite (NO2), which is the stable NO metabolite, in culture supernatant was quantified by HPLC (ENO-20, EICOM).

Row | Compound | effect on NO production (nitrite NO2 concentration in medium) (citrulline final concentration 0.3 mM) | effect on NO production (nitrite NO2 concentration in medium) (reduced glutathione final concentration 1 mM (high-dose))
1 | NC(=O)NCCC[C@H](N)C(=O)O [citrulline] | no effect on NO production | 
2 | N[C@@H](CCC(=O)N[C@@H](CS)C(=O)NCC(=O)O)C(=O)O [glutathione, reduced glutathione] |  | no effect on NO production

— patent publication US20160296586A1, “AGENT FOR PREVENTING OR AM[…] ENDOTHELIAL MALFUNCTION” (KYOWA HAKKO BIO CO., LTD., priority 2012, published 2016)
